Inconclusive results are not listed. Active and inactive are the calls of the source. No rule for the calls is given here.
System: Mycobacterium tuberculosis non-replicating, growth inhibition
Assay: growth inhibition of non-replicating M. tuberculosis (AID 488890)

Row | Structure (SMILES) | IC50
1 | COc1ccccc1/C=N\Nc1cc(C)nc(-n2nc(C)cc2C)n1 | 1.77 µM
2 | COc1ccc(C(=O)C=CNNC(=O)c2ccc(Cl)cc2)cc1 | 0.48 µM
3 | CN(C)CCCNc1cc(C(C)(C)C)nc2c(-c3ccccc3)cnn12 | 18.6 µM (inactive)
4 | Cc1ccc2nc(C)c3c(c2c1)SCC3 | 11.6 µM (inactive)
5 | COc1ccc(-c2noc(-c3cc4ccccc4oc3=O)n2)cc1 | 5.06 µM
6 | Cn1[nH]c(-c2ccccc2)c(/C=N/O)c1=O | 8.99 µM
7 | CCOc1ccc(Nc2ccc([N+](=O)[O-])c3nonc23)cc1 | 1.72 µM
8 | O=C(COC(=O)c1cccs1)NCCC1=CCCCC1 | 14.1 µM (inactive)
9 | Clc1ccc(SCCOCCN2CCc3ccccc3C2)cc1 | 13.5 µM (inactive)
10 | COc1ccc(-c2nc3ccc(C)cc3c(=O)o2)cc1OC | 2.95 µM
11 | CCCNC(=O)NC(=O)COc1ccc(-c2ccc(C#N)cc2)cc1 | 2.54 µM
12 | FC(F)(F)c1ccc(-c2nnc(-c3cccnc3)o2)cc1 | 6.48 µM
13 | CSCCC(=O)N1CCCC(N2CCN(c3cccc(C(F)(F)F)c3)CC2)C1 (stereo unspecified) | 34.4 µM (inactive)
14 | O=C(N/N=C/c1ccc([N+](=O)[O-])s1)c1cccc(Br)c1 | 4.95 µM
15 | COc1cc(/C=N/Nc2ccc(Cl)c(C(=O)O)c2)ccc1OC(=O)c1ccco1 | 11.9 µM (inactive)
16 | CC(=O)n1cc(/C=C2/N=C(c3ccccc3)OC2=O)c2ccccc21 | 2.59 µM
17 | Cc1ccc(NC(=O)CO/N=C/c2ccc(N(C)C)cc2)cc1 | 7.84 µM
18 | Cc1ccc2nc(/N=C(\N)NC(=O)NC3CCCCC3)nc(C)c2c1 | 8.34 µM
19 | CC(C)(C)c1ccc2c(c1)OC(C(=O)N/N=C\c1ccccn1)CO2 (stereo unspecified) | 4.8 µM
20 | Cc1[nH][nH]c(=O)c1C(c1ccc(-c2ccc(F)cc2)o1)c1c(C)[nH][nH]c1=O | 8.5 µM
21 | O=C(COC(=O)CCc1c[nH]c2ccccc12)NCc1ccc(Cl)cc1 | 7.82 µM
22 | CCCNC(=O)c1ccc(COc2ccc(C)cc2)o1 | 32.9 µM (inactive)
23 | COCc1cc(=O)[nH]c(Nc2nc3ccccc3o2)n1 | 1.58 µM
24 | Cc1cccc(-c2cc3nc(C)c(C)c(NCCCn4ccnc4)n3n2)c1 | 10.9 µM (inactive)

Row | Structure (SMILES) | IC50
25 | CCOC(=O)c1ccc(N=C2SC(C(=O)Nc3ccc(C(=O)O)cc3)CC(=O)N2Cc2cccs2)cc1 (stereo unspecified) | 35.1 µM (inactive)
26 | COC(=O)N/N=C/c1ccc([N+](=O)[O-])s1 | 17 µM (inactive)
27 | CC/C(=C\C=C\[C@@H]1C=C[C@@H]2CCC[C@H]2[C@@H]1C(=O)c1ccc[nH]1)[C@@H]1O[C@@H]([C@@H](C)C(=O)O)CC[C@@H]1C | 3.28 µM
28 | Cc1ccc2nc(CCc3nc4ccc(C)cc4[nH]3)[nH]c2c1 | 17.1 µM (inactive)
29 | CC(C)(C)c1csc(NC(=O)c2ccccc2O)n1 | 19.6 µM (inactive)
30 | CC(C)C(=O)N1CCN(c2ccc(NC(=O)c3ccc([N+](=O)[O-])o3)cc2)CC1 | 1.24 µM
31 | O=c1c2ccc(Cl)cc2nc(-c2ccc([N+](=O)[O-])cc2)n1O | 1.3 µM
32 | O=C(Nc1ccc(S(=O)(=O)N2CCOCC2)cc1)c1ccc([N+](=O)[O-])s1 | 1.59 µM
33 | O=C(COc1ccccc1)Nc1ccc(F)cc1 | 8.5 µM
34 | CCCCNC(=O)Nc1nnc(-c2ccc(Cl)cc2)o1 | 22.8 µM (inactive)
35 | O=C(NCCc1ccccc1)c1nc(-c2cccs2)no1 | 2.21 µM
36 | CCC(C)n1nnc2c(=O)oc3ccccc3c21 (stereo unspecified) | 5.63 µM
37 | CCc1ccc(C2=C/C(=C/c3cccnc3)C(=O)O2)cc1 | 21.2 µM (inactive)
38 | O=C1OC(/C=C/c2ccccc2)=NC/1=C\c1cccnc1 | 13 µM (inactive)
39 | COc1ccc(COc2cccc(C=O)c2)cc1 | 25.8 µM (inactive)
40 | CC(=O)OCCN(C)c1cc(SC(C)C)c2nonc2c1[N+](=O)[O-] | 13.7 µM (inactive)
41 | Cc1ncsc1CCOC(=O)c1ccc([N+](=O)[O-])cc1 | 10.4 µM (inactive)
42 | CNc1nnc(Sc2ncccc2[N+](=O)[O-])s1 | 5.8 µM
43 | Cc1ccc(/C=N/NC(=O)C2COc3ccccc3O2)s1 (stereo unspecified) | 0.7 µM
44 | N/C(=N\OC(=O)CC1CCCCC1)c1ccncc1 | 6.38 µM
45 | CCOc1ccccc1NC(=O)COn1nnc2ccc(Cl)cc21 | 10.5 µM (inactive)
46 | Cc1nnc(N/N=C/c2ccc(-c3ccc(Br)cc3)o2)n1N | 3.49 µM
47 | CCCCCCn1c(=O)c(C(=O)Nc2cnccn2)c(O)c2ccccc21 | 2.4 µM
48 | C#CCSc1nnc(-c2ccc(C)cc2)o1 | 0.82 µM

Row | Structure (SMILES) | IC50
49 | Cc1ccc2nc(NC(=O)COC(=O)c3ccc(Br)o3)sc2c1 | 35.8 µM (inactive)
50 | COCCCNC(=O)COC(=O)c1ccc(-c2nc3ccccc3s2)s1 | 5.37 µM
51 | O=C(Nc1nc2c(F)cc(F)cc2s1)c1ccccn1 | 2.12 µM
52 | O=C(Nc1nnc(C2=COCCO2)o1)c1ccc(Cc2ccccc2)cc1 | 30.6 µM (inactive)
53 | O=C(c1ccccc1[N+](=O)[O-])N1N=C(c2ccccc2)CC1(O)C(F)(F)F (stereo unspecified) | 3.92 µM
54 | Cc1cc(Br)ccc1OCCCCN1CCCCC1 | 14.4 µM (inactive)
55 | O=S(=O)(CCN1CCN(c2ccccn2)CC1)c1ccc(Cl)cc1Cl | 8.61 µM
56 | Cc1cc(Cl)ccc1OCC(=O)NNC(=O)c1cnccn1 | 6.05 µM
57 | O=C(COC(=O)c1cc(Cl)ccc1O)c1ccc2c(c1)OCO2 | 6.61 µM
58 | O=C(CCSc1ccccn1)c1ccccc1 | 9.72 µM
59 | O=C(CN1CCN(c2ccc([N+](=O)[O-])cc2)CC1)Nc1ccccn1 | 30.8 µM (inactive)
60 | CC(NC(=O)c1cc2ccccc2oc1=O)c1ccccc1 (stereo unspecified) | 0.86 µM
61 | Cc1nc2scc(-c3ccccc3)c2c(=O)o1 | 14.8 µM (inactive)
62 | C/C(=N\NC(=O)c1ccncc1)c1cc2ccccc2oc1=O | 0.43 µM
63 | CCC(=O)c1ccc(OC(=O)c2ccc(Br)o2)cc1 | 9.81 µM
64 | O=C(COC(=O)c1ccc(Br)o1)Nc1ncc([N+](=O)[O-])s1 | 14.4 µM (inactive)
65 | CC(NC(=O)c1cccc(F)c1)C1CC2CCC1C2 (stereo unspecified) | 0.16 µM
66 | COc1ccc2c3c(cccc13)OCC2=O | 25.9 µM (inactive)
67 | CC(C)[C@@H]1CC[C@@H](C)C[C@H]1OC(=O)C[n+]1cc(-c2ccc(Cl)cc2)n2c1CCCCC2 | 2.18 µM
68 | O=C(Cc1ccc(Cl)cc1)OCC(=O)c1ccc[nH]1 | 5.58 µM
69 | Clc1ccccc1CSc1nnc([C@@H]2CCCN2)o1 | 12.2 µM (inactive)
70 | O=C1CSC(=S)N1Cc1cccnc1 | 6.18 µM
71 | CN(C)c1ccc(NC(=O)COC(=O)c2cc(Cl)ccc2[N+](=O)[O-])cc1 | 8.95 µM
72 | Cc1ccc(OCC(=O)N2CCCc3ccccc32)cc1 | 6.25 µM

Row | Structure (SMILES) | IC50
73 | N#Cc1cc(N)ccc1-n1cccc1 | 6.15 µM
74 | Cn1c(=O)c2c(=O)cc(NNC(=O)CC#N)[nH]c2n(C)c1=O | 26.9 µM (inactive)
75 | COc1cccc(COC(=O)CCNC(=O)c2ccc(Br)cc2)c1OC | 15.6 µM (inactive)
76 | COC(=O)c1c(NC(=O)c2ccc([N+](=O)[O-])o2)sc2c1CCN(C(C)C)C2 | 0.15 µM
77 | O=C(Nc1ccccn1)c1ccc(C(=O)c2ccccc2)cc1 | 18.4 µM (inactive)
78 | COC(=O)CCc1nc2c(C#N)c(-c3ccc(Cl)cc3)ccn2n1 | 24.3 µM (inactive)
79 | COc1ccc(N2C(=O)CC(Sc3nc4ccccc4s3)C2=O)cc1OC (stereo unspecified) | 14.2 µM (inactive)
80 | CCCn1nnc(NC(=O)COc2ccc(CC)cc2)n1 | 17.9 µM (inactive)
81 | O=C(COc1ccc2ccccc2c1)Nc1nccs1 | 5.88 µM
82 | Cc1cc(NC(=O)COC(=O)COc2ccc(C(=O)c3ccccc3)cc2)no1 | 18.3 µM (inactive)
83 | COc1ccc(NCC(=O)N2CCCC2)cc1Cl | 10.8 µM (inactive)
84 | Cc1ccc(C(=O)COC(=O)c2cccs2)cc1 | 11 µM (inactive)
85 | C/C(=N\NC(=O)c1cc([N+](=O)[O-])cc([N+](=O)[O-])c1)c1ccco1 | 11.4 µM (inactive)
86 | Fc1ccc(-c2nnc(CSc3nnc(-c4cccs4)o3)o2)cc1 | 3.68 µM
87 | COc1cccc2sc(Nc3nnc(-c4ccc(F)cc4)o3)nc12 | 2.67 µM
88 | CN(CC(=O)Nc1ccc(Cl)cc1)C1CCCCC1 | < 0.1 µM
89 | O=C(Nc1ccccc1)c1nnsc1S(=O)c1ccc(Cl)cc1 (stereo unspecified) | 0.34 µM
90 | Cc1nc([N+](=O)[O-])c(Br)n1CC(=O)c1ccc(Cl)cc1 | 5.69 µM
91 | O=C(OCCCCN1C(=O)c2ccccc2C1=O)c1ccc(Br)o1 | 6.06 µM
92 | CCC(=O)Nc1nc2ccccc2n1Cc1ccc(C)cc1 | 20.5 µM (inactive)
93 | CCCNC1=C(N(C(C)=O)c2cccc(F)c2)C(=O)c2ccccc2C1=O | 5.89 µM
94 | CCc1ccc(NC(=O)CCc2ccc(C)o2)cc1 | 9.6 µM
95 | CCOC(=O)c1ccc(N=C(CC)c2c(O)n(C)c(=O)n(C)c2=O)cc1 | 8.28 µM
96 | O=C1c2ccccc2CC1Sc1nnc(-c2ccncc2)o1 (stereo unspecified) | 23.9 µM (inactive)

Row | Structure (SMILES) | IC50
97 | O=C1Nc2ccc(Br)cc2/C1=C/C(=O)c1ccc2c(c1)OCO2 | 10.6 µM (inactive)
98 | CCN1CCC(=NNC(=O)c2ccco2)CC1 | 42.6 µM (inactive)
99 | Cc1ccc(C(=O)N/N=C/c2cccc3ccccc23)cn1 | 5.95 µM
100 | CCC1CCc2sc(C(=O)NCC3CCCO3)cc2C1 (stereo unspecified) | 1.44 µM
101 | O=C(COC(=O)c1ccc(Br)o1)NCCCc1ccccc1 | 6.5 µM
102 | CC(C)Cn1c(=O)c(C(=O)Nc2ccncc2)c(O)c2ccccc21 | 2.86 µM
103 | CC(C)Cc1nnc(NC(=O)CCS(=O)(=O)c2ccc(Cl)cc2)s1 | 5.37 µM
104 | CN(C)CCCN(C(=O)CCc1ccccc1)c1nc2ccc(Cl)cc2s1 | 12.7 µM (inactive)
105 | CCOc1ccc(OC(=O)c2ccc3c(=O)n4c(nc3c2)CCC4)cc1 | 0.5 µM
106 | COc1cc2c(cc1OC)CN(CCC(=O)c1ccc(Br)cc1)CC2 | 6.03 µM
107 | CC(CN1CCOCC1)OC(=O)c1ccc(Br)cc1 (stereo unspecified) | 1.51 µM
108 | CCCc1cc(C(=O)Nc2cccc(C(C)=O)c2)no1 | 10.2 µM (inactive)
109 | Cc1ccc(C)c(-c2nnc(NC(=O)C3=COCCO3)o2)c1 | 23.1 µM (inactive)
110 | NC(=O)COc1ccc2cc(-c3ccc(F)cc3)c(=O)oc2c1 | 18 µM (inactive)
111 | CC1CCC/C(=C\Nc2ccc(C(=O)O)c(O)c2)C1=O (stereo unspecified) | < 0.1 µM
112 | CCc1ccccc1NC(=O)C1COc2ccccc2O1 (stereo unspecified) | 19.8 µM (inactive)
113 | CN1CC=C(/C=C/c2ccc(-c3ccccc3)cc2)CC1 | 11.4 µM (inactive)
114 | COc1ccc(/C(C)=N/Nc2ncc(Cl)cc2Cl)c(O)c1 | 4.51 µM
115 | O=C(OCc1ccc(Cl)c(Cl)c1)c1ccccn1 | 2.27 µM
116 | C/C(=N\O)c1cc(Cl)ccc1O | 2.42 µM

Source: PubChem BioAssay AID488890 (Southern Research Specialized Biocontainment Screening …, 2010)
